Results from US9359281B2, “Enantiomers of 2-hydroxy derivatives of fatty acids” (UNIVERSITAT DE LES ILLES BALEARS, priority 2011, dated 2016).

Key:
SF767 cells = experiment: Levels of SM in cell membranes, SF767; assay type: cell-based, human
Procedure: (§1) At the same time, we have studied the anti-tumoral effect on these and other tumoral lines (see Table 2). The cells were treated in vehicle (water with 5% ethanol, control) or with compound 2OHOA for 24 hours in a concentration of 200 μM. The values of the ordinate axis represent the average±ESM (error standard mean for a number of experiments n=3-5) of SM levels (percent of total phospholipids), determined by chromatographic processes (followed by spectroscopy and image analysis), as a percentage of the total number of lipids compared with untreated cells (control). […] In addition to the techniques for measuring enzyme activity and levels of SM described above, other techniques have been tested which lead to very similar results as, gas chromatography, confocal microscopy, fluorescence spectroscopy, etc.
(§2) The levels of SM, cultivated in the absence (control) or presence of 200 μM of [−]2OHOA, in normal cell membranes (MRC-5 and IMR90) were measured, and also in several types of tumoral cells (see Table 2). In all cases, we detected that the membranes of tumoral cells have SM levels of about half or a third of that in normal cells (FIG. 1). […] For example, the spectrophotometry determination of solution fluorescence of the SM levels is a very simple, quick and efficient analysis method (FIG. 1D). […]

1321N1 cells = experiment: Levels of SM in cell membranes, 1321N1; assay type: cell-based, human
Procedure: as §1, §2

A549 cells = experiment: Levels of SM in cell membranes, A549; assay type: cell-based, human
Procedure: as §1, §2

Jurkat cells = experiment: Levels of SM in cell membranes, Jurkat; assay type: cell-based, human
Procedure: as §1, §2

MRC-5 cells [1] = experiment: Levels of SM in cell membranes, MRC-5; assay type: cell-based, human
Procedure: as §1, §2

U118 cells = experiment: Cell growth inhibition, U118; assay type: cell-based, human; parameters: key to Effect (anti-proliferation effect): +: inhibition of cell growth; −: absence of effect; settings: for IC50: U118, sodium salt form
From the text: (§3) At this respect, concentrations which inhibit growth of tumour cells (IC50) are lower for the enantiomer S ([−]) in all studied tumour lines (Table 5). […] In all of the cases, the molecules employed were in the form of sodium salt.

SH-SY5Y cells = experiment: Cell growth inhibition, SH-SY5Y; assay type: cell-based, human; parameters: key to Effect (anti-proliferation effect): +: inhibition of cell growth; −: absence of effect; settings: for IC50: SH-SY5Y, sodium salt form
From the text: as §3

MRC-5 cells [2] = experiment: Cell growth inhibition, MRC-5; assay type: cell-based, human; parameters: key to Effect (anti-proliferation effect): +: inhibition of cell growth; −: absence of effect; settings: for IC50: MRC-5 non tumor fibroblast, sodium salt form
From the text: as §3

[3] = system: human glioma (SF767) cells; experiment: Volume of human glioma (SF767) tumours in immuno-depressed mice; assay type: in vivo; settings: for Effect: variation in the size of the tumour compared with untreated animals: 15 days; for decrease in the volume of the tumour: 200 mg/kg, 15 days orally
From the text: This example recounts the study carried out on immuno-depressed mice infected with human glioma (SF767) cells and treated for 15 days (orally) with the indicated dose (Table 3).

[4] = system: human lung cancer cells (A549); experiment: Volume of tumours derived from human lung cancer cells (A549) in mice; assay type: in vivo; settings: 600 mg/kg·day, 15 days, orally
Procedure: A. Effect on the volume of tumours derived from human lung cancer cells (A549): immuno-depressed mice were infected with human lung cancer cells and 7 days later (when the tumours were observable), treatments started with vehicle (control), 2OHOA racemic (+/−), and optic isomers [−]2OHOA and [+]2OHOA (600 mg/kg·day, 15 days, orally). The bars correspond to values of an average±EEM (n=3-5) of the increase in volume (mm^3) of the tumours (n=6).
On the other hand, we investigated the antitumoral activity of these compounds in different types of human cancer (see Tables 2, 4 and 5). […] Furthermore, the activity of these enantiomers was proven against a vast variety of human cancers of different nature, since it can be stated that enantiomers [−] of 2-hydroxylated fatty acids have a high potency in the treatment of any type of cancer.

[5] = system: hypertense rats (strain SHR); experiment: Systolic arterial pressure in SHR rats; assay type: in vivo; settings: 600 mg/kg every 12 h, 15 days, orally
Procedure: B. Effects on arterial pressure: hypertense rats (strain SHR) were treated with 2OHOA racemic (+/−) and its optic isomers [−]2OHOA and [+]2OHOA (600 mg/kg every 12 h, 15 days, orally). […] Values of average±EEM systolic pressure (n=6) are shown.
What is more, we studied the effect of the isomers above on arterial pressure, body weight, and the level of cholesterol, triglycerides and glycemia (glucose in plasma) in SHR rats SHR (FIGS. 8B, 8C and 8D and 8E). […] Similarly, during 1 and 5 days of treatment, rats treated with the racemic loosed 11 gram of weight (approximately a 3% of their body weight), whereas animals of the group treated with enantiomer [−]2OHOA loosed 21 grams and animals of the group treated with enantiomer [+]2OHOA only loosed 7 grams of weight. On the other hand, a higher effect of enantiomer [+]2OHOA in the reduction of triglyceride (TG) and total cholesterol (CHOt) levels was observed (FIG. 8D) At this respect, plasmatic basal levels of TG in SHR rats are of 108 mg/dl and were reduced to 56 mg/dl after 2 weeks treatment […]. On the other hand, treatment with enantiomer [+]2OHOA inducted a reduction of plasmatic TG levels to 47 mg/dl, whereas enantiomer [−]2OHOA only produced a modest reduction to 81 mg/dl. […]

SH-SYSY cells = experiment: Levels of SM in cell membranes, SH-SYSY; assay type: cell-based, human; settings: 200 μM [−]2OHOA
Procedure: The levels of SM, cultivated in the absence (control) or presence of 200 μM of [−]2OHOA, in normal cell membranes (MRC-5 and IMR90) were measured, and also in several types of tumoral cells (see Table 2). In all cases, we detected that the membranes of tumoral cells have SM levels of about half or a third of that in normal cells (FIG. 1). We can therefore assert that SM concentration is a biomarker which indicates tumorgenesis in human cells. On the other hand, treatments with the molecules of the present invention induce an increase of SM in the tumour cells which is not naturally occurring. […] For example, the spectrophotometry determination of solution fluorescence of the SM levels is a very simple, quick and efficient analysis method (FIG. 1D). Thus, this invention has generated a method for diagnosis for detecting the described pathological processes and pathologies in which there are SM level changes, and also for monitoring the efficiency of the therapy using molecules of the present invention and others of similar activity. Based on this knowledge, this invention also includes kits for diagnosing these diseases.

Row | SMILES | Effect: variation in the size of the tumour compared with untreated animals ([3]; 50 mg/kg orally) | Effect: variation in the size of the tumour compared with untreated animals ([3]; 75 mg/kg orally) | Effect: variation in the size of the tumour compared with untreated animals ([3]; 100 mg/kg orally) [%] | Effect: variation in the size of the tumour compared with untreated animals ([3]; 150 mg/kg orally) | Effect: variation in the size of the tumour compared with untreated animals ([3]; 200 mg/kg orally) [%] | decrease in the volume of the tumour [3] [%] | Effect: variation in the size of the tumour compared with untreated animals ([3]; 400 mg/kg orally) [%] | Effect: variation in the size of the tumour compared with untreated animals ([3]; 600 mg/kg orally) | volume of tumours derived from A549 cells [4] | effect on systolic arterial pressure [5] | IC50 (U118 cells) [µM] | IC50 (SH-SY5Y cells) [µM] | IC50 (MRC-5 cells [2]) [µM] | further results
1 | CCCCCCCC/C=C\CCCCCCC(O)C(=O)O (racemic) [2OHOA, 2-hydroxyoleic acid] | +2% | −7% | −8 | −17% | −23 | 23 | −39 | −37% | significant reductions | considerable therapeutic effect but of lower amplitude |  |  |  | synthesis of SM (SF767 cells; SF767, 200 μM, 24 hours): significant increase; synthesis of SM (1321N1 cells; 1321N1, 200 μM, 24 hours): significant increase; synthesis of SM (A549 cells; A549, 200 μM, 24 hours): significant increase; synthesis of SM (Jurkat cells; 200 μM, 24 hours): significant increase; synthesis of SM (MRC-5 cells [1]; MRC5, 200 μM, 24 hours): not in non-tumoral cells; IC50 (U118 cells; Homo sapiens): 142 µM; IC50 (SH-SY5Y cells; Homo sapiens): 119 µM; IC50 (MRC-5 cells [2]; Homo sapiens, MRC5): > 5000 µM
2 | CCCCCCCC/C=C\CCCCCCC(O)C(=O)O (stereo not shown) [[+]2OHOA] [[+]HOOC—HOCH—(CH2)6—(CH═CH—CH2)1—(CH2)6—CH3] | −2% | +7% | −3 | +1% | −4 |  | −2 | +3% | no significant changes in the volume of tumours | considerable therapeutic effect but of lower amplitude | 212 | 193 | > 5000 | activity on tumour volume after 15 days of treatment ([3]; indicated doses (50-600 mg/kg), orally): showed no activity
3 | CCCCCCCC/C=C\CCCCCCC(O)C(=O)O (stereo not shown) [[−]2OHOA] [[−] HOOC—HOCH—(CH2)6—(CH═CH—CH2)1—(CH2)6—CH3] | −35% | −54% | −65 | −78% | −89 | 89 | −91 | −86% | significant reductions compared with all the other treatments |  | 97.8 | 64.4 | > 5000 | % SM after treatment (SF767 cells; SF767, 200 μM [−]2OHOA): 24%; % SM after treatment (1321N1 cells; 1321N1, 200 μM [−]2OHOA): 27%; % SM after treatment (SH-SYSY cells): 22%; % SM after treatment (A549 cells; A549, 200 μM [−]2OHOA): 33%; % SM after treatment (Jurkat cells; 200 μM [−]2OHOA): 27%; % SM after treatment (MRC-5 cells [1]; MRC-5 non-tumoral fibroblast, 200 μM [−]2OHOA): 24%; Effect (anti-proliferation effect) (U118 cells; U118): +; Effect (anti-proliferation effect) (SH-SY5Y cells; SH-SYSY): +; Effect (anti-proliferation effect) (MRC-5 cells [2]; MRC-5): −
